Among the data in patent US7659289B2, “Hydroxyethylene-based β-secretase inhibitors and use thereof” (CoMentis, Inc., priority 2004, dated 2010) are Ki and IC50 values, retold here.

One test has as its target Cathepsin D (Homo sapiens, UniProt P07339). The test can be described thus: Inhibition of cathepsin D activity (MALDI-TOF, substrate peptide […]). In kind it is biochemical. Particulars: pH 4.1, 37 degrees C., read-out: Cath D Ki.
The target in another test is T1, Memapsin 1 (Homo sapiens, UniProt Q9Y5Z0).
T1 sequence (Q9Y5Z0 63-473 limits assumed): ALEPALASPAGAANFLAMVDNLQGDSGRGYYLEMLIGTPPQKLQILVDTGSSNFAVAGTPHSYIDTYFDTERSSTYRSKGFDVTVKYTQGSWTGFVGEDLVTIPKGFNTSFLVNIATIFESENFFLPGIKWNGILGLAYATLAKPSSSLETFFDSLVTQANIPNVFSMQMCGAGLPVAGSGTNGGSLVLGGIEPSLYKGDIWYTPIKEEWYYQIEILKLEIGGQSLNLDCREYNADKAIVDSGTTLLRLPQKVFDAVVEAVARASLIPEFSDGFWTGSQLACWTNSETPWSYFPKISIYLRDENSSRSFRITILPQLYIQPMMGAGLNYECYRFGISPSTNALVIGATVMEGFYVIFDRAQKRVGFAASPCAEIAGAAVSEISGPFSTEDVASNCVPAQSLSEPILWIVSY
The experiment in a line: Inhibition of memapsin 1 beta-secretase activity (MALDI-TOF, substrate peptide […]). In kind it is biochemical. Conditions: pH 4.1, 37 degrees C., read-out: M1 Ki.

The subject of the next test is Aβ production. The test can be described thus: Cellular Aβ IC50 determination (Aβ40 sandwich ELISA). The test is classed as cell-based. Conditions: Cricetulus griseus; Aβ40, Chinese hamster ovary cells over-expressing human APP695 with London and Swedish mutations, 24 h incubation. How it is done:
The potency of compounds against memapsin 2 activity was determined in a cellular assay of Aβ production. […] Chinese hamster ovary cells that over-express human APP695 with the London and Swedish mutations were seeded in multi-well plates at 10% confluency. Compounds were dissolved in DMSO to concentrations near 1 mM, and diluted into culture media to a final concentration near 4 μM (final 0.4% DMSO). Compounds were diluted serially and applied to cells in multi-well plates 48 h after seeding. Incubation was continued in 5% CO2 at 37 degrees C. for 24 h. Aliquots were removed and assayed for Aβ40 content using a sandwich ELISA (BioSource International). Amount of Aβ40 over the range of concentration of compounds, relative to control incubations, were fit to a 4-parameter IC50 model.

The target of another test is memapsin 2 (Homo sapiens, UniProt P56817). The experiment in a line: Inhibition of memapsin 2 beta-secretase activity toward fluorogenic substrate FS-2. The test is classed as biochemical. Conditions: pH 4, 37° C., 20 minutes pre-incubation, fluorogenic substrate FS-2, tight-binding model; read-out: M2 Ki.
memapsin 2, sequence (P56817 46-501): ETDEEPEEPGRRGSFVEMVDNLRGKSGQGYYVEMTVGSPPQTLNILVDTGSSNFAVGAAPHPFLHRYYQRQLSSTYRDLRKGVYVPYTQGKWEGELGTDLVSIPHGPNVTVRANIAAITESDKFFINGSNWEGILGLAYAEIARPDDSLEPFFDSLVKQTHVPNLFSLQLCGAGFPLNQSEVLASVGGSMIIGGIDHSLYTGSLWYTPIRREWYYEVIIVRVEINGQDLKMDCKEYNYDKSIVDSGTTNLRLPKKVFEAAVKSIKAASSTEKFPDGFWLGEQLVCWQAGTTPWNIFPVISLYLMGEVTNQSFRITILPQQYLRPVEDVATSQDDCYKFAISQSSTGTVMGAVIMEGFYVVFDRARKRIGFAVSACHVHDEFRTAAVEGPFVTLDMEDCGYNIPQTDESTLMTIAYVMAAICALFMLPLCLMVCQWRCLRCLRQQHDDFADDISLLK

Cathepsin D, sequence (P07339 65-412, species assumed): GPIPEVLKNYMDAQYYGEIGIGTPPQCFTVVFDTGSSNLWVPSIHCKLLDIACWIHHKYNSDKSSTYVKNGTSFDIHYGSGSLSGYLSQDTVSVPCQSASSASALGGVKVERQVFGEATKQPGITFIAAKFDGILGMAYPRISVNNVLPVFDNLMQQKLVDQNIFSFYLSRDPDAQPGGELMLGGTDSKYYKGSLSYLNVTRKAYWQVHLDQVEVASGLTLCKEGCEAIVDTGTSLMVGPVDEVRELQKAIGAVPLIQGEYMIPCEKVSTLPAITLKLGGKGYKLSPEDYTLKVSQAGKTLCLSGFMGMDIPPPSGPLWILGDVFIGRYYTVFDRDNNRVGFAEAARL
Protocol for Memapsin 1: After equilibration at 37 degrees C., the reactions were initiated by the addition of an aliquot of memapsin 2. Aliquots were removed at time intervals, and combined with an equal volume of MALDI-TOF matrix (α-hydroxycinnamic acid in acetone, 20 mg/ml) and immediately spotted in duplicate onto a stainless-steel MALDI sample plate. MALDI-TOF mass spectrometry was performed on a PE Biosystems Voyager DE instrument at the Molecular Biology Resource Center on campus. The instrument was operated at 25,000 accelerating volts in positive mode with a 150 ns delay. Ions with a mass-to-charge ratio (m/z) were detected in the range of 650-2000 atomic mass units. Data was analyzed by the Voyager Data Explorer module to obtain ion intensity data for mass species of substrates and corresponding products in a given mixture. Relative product formation was calculated as the ratio of signal intensity of the product to the sum of signal intensities of both product and the corresponding substrate. Relative product formed per unit time was obtained from non-linear regression analysis of the data representing the initial 15% formation of product using the model: 1−e^−kT,
where k is the relative hydrolytic rate constant and T is time in seconds. Initial rates were expressed relative to uninhibited controls and fit to a tight-binding model of competitive inhibition as above.

As to `Cc1csc(COC(=O)N[C@@H](CNS(C)(=O)=O)C(=O)N[C@@H](CC(C)C)[C@@H](O)C[C@@H](C)C(=O)N[C@H](C(=O)NCC(C)C)C(C)C)n1`, the Ki at Cathepsin D was 100 to 600 nM; at Memapsin 1, 100 to 600 nM; at memapsin 2 it was below 100 nM. Also, the IC50 with Aβ production is above 100000 nM.
In the case of `COC(=O)NC[C@H](NC(=O)OCc1nc(C)cs1)C(=O)N[C@@H](CC(C)C)[C@@H](O)C[C@@H](C)C(=O)N[C@H](C(=O)NCC(C)C)C(C)C`, the Ki on Cathepsin D, on Memapsin 1 and on memapsin 2 was below 100 nM each time. This compound displayed an IC50 in the test with Aβ production below 6000 nM.
`Cc1csc(COC(=O)N[C@@H](CNC(=O)OC(C)(C)C)C(=O)N[C@@H](CC(C)C)[C@@H](O)C[C@@H](C)C(=O)N[C@H](C(=O)NCC(C)C)C(C)C)n1`: the Ki at Cathepsin D, at Memapsin 1 and on memapsin 2 was 100 to 600 nM in each case. In the test on Aβ production, this compound displayed an IC50 above 100000 nM.
In the case of `Cc1csc(COC(=O)N[C@@H](CNC(=O)O[C@H]2CCOC2)C(=O)N[C@@H](CC(C)C)[C@@H](O)C[C@@H](C)C(=O)N[C@H](C(=O)NCC(C)C)C(C)C)n1`, the Ki at Cathepsin D, on Memapsin 1 and on memapsin 2 was 100 to 600 nM in each case. The same compound returned an IC50 in the test on Aβ production of 6000 to 100000 nM.
On to `Cc1csc(CNC(=O)C[C@@H](NC(=O)OC(C)(C)C)C(=O)N[C@@H](CC(C)C)[C@@H](O)C[C@@H](C)C(=O)N[C@H](C(=O)NCC(C)C)C(C)C)n1` [tert-butyl (5R,8S,9S,11 R,14S)-9-hydroxy-8-isobutyl-14-isopropyl-11,18-dimethyl-1-(4-methylthiazol-2-yl)-3,6,12,15-tetraoxo-2,7,13,16-tetraazanonadecan-5-ylcarbamate], for which the Ki at Memapsin 1 was 100 to 600 nM; on memapsin 2 it was below 100 nM.
In the case of `Cc1csc(CNC(=O)C[C@H](NC(=O)OC(C)(C)C)C(=O)N[C@@H](CC(C)C)[C@@H](O)C[C@@H](C)C(=O)N[C@H](C(=O)NCC(C)C)C(C)C)n1` [tert-butyl (5S,8S,9S,11R,14S)-9-hydroxy-8-isobutyl-14-isopropyl-11,18-dimethyl-1-(4-methylthiazol-2-yl)-3,6,12,15-tetraoxo-2,7,13,16-tetraazanonadecan-5-ylcarbamate], the inhibition constant Ki on Memapsin 1 was above 600 nM; on memapsin 2 it was 100 to 600 nM.
Regarding `Cc1csc(C[C@H](C)C(=O)N[C@@H](CNC(=O)OC(C)(C)C)C(=O)N[C@@H](CC(C)C)[C@@H](O)C[C@@H](C)C(=O)N[C@H](C(=O)NCC(C)C)C(C)C)n1` [tert-butyl (S)-3-((4S,5S,7R)-5-hydroxy-8-((S)-1-(isobutylamino)-3-methyl-1-oxobutan-2-ylamino)-2,7-dimethyl-8-oxooctan-4-ylamino)-2-((S)-2-methyl-3-(4-methylthiazol-2-yl)propanamido)-3-oxopropylcarbamate], the inhibition constant (Ki) is below 100 nM at Cathepsin D, 100 to 600 nM at Memapsin 1 and below 100 nM at memapsin 2. The same compound gave an IC50 with Aβ production below 6000 nM.
On to `Cc1csc(C[C@H](C)C(=O)N[C@@H](CNS(C)(=O)=O)C(=O)N[C@@H](CC(C)C)[C@@H](O)C[C@@H](C)C(=O)N[C@H](C(=O)NCC(C)C)C(C)C)n1` [(2R,4S,5S)-4-hdroxy-N-((S)-1-(isobutylamino)-3-methyl-1-oxobutan-2-yl)-2,7-dimethyl-5-((S)-2-((S)-2-methyl-3-(4-methylthiazol-2-yl)propanamido)-3-(methylsulfonamido)propanamido)octanamide], for which the inhibition constant Ki at Cathepsin D and on memapsin 2 was below 100 nM each time. Moreover, in the test on Aβ production, the IC50 was below 6000 nM.
Consider `Cc1csc(C[C@H](C)C(=O)N[C@@H](CNC(=O)O[C@@H]2CCOC2)C(=O)N[C@@H](CC(C)C)[C@@H](O)C[C@@H](C)C(=O)N[C@H](C(=O)NCC(C)C)C(C)C)n1` [(R)-tetrahydrofuran-3-yl (S)-3-((4S,5S,7R)-5-hydroxy-8-((S)-1-(isobutylamino)-3-methyl-1-oxobutan-2-ylamino)2,7-dimethyl-8-oxooctan-4-ylamino)-2-((S)-2-methyl-3-(4-methylthiazol-2-yl)propanamido)-3-oxopropylcarbamate], for which the Ki at Cathepsin D and at memapsin 2 was below 100 nM each time. Moreover, the IC50 in the test on Aβ production was below 6000 nM.
